Structures can show the parent of a compound that is named as a salt.
Target: T1, recombinant guanylate cyclase reporter cell line (Rattus norvegicus, UniProt P20595)
T1 construct: expressed in transfected cells
T1 sequence (P20595 1-619): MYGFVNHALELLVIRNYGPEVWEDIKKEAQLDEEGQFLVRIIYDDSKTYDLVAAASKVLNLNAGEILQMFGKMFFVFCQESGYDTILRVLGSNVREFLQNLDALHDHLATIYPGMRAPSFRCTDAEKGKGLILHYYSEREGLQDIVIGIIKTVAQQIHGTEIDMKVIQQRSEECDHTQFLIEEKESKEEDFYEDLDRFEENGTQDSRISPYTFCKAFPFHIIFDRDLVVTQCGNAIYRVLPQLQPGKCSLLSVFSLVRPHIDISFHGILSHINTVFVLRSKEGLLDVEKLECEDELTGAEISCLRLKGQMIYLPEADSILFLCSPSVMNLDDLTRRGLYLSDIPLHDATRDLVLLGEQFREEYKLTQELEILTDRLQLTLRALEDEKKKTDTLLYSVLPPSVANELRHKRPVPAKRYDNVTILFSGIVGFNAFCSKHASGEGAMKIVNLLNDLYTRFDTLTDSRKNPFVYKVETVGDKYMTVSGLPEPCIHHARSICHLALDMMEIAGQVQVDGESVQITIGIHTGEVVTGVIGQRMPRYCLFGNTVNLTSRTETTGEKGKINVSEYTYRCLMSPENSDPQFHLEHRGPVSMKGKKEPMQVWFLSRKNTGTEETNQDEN
T1 sequence (P19686 1-690 partner): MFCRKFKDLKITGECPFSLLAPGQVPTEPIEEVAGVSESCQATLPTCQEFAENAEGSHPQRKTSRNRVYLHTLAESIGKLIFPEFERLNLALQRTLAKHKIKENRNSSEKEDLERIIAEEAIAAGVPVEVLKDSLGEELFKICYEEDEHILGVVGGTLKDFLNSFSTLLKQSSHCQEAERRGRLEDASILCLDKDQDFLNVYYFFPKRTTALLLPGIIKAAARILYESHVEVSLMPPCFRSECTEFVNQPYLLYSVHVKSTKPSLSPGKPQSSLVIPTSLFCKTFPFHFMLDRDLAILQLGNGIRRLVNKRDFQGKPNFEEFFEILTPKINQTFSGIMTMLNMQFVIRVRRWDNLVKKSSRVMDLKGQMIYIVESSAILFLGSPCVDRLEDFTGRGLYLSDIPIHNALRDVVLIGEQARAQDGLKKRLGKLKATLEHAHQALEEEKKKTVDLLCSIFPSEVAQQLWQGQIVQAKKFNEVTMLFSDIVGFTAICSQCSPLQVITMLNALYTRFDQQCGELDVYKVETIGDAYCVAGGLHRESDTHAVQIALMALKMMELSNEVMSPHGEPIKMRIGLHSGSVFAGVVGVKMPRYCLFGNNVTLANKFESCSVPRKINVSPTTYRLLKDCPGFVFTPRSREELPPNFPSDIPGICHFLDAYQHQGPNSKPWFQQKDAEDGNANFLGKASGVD
Assay: Effect on a recombinant guanylate cyclase reporter cell line
Type: cell-based
Details: for EC50: half maximal effective concentration; for MEC: minimum effective concentration
Description: B-1. Effect on a Recombinant Guanylate Cyclase Reporter Cell Line
The cellular activity of the compounds according to the invention was determined using a recombinant guanylate cyclase reporter cell line, as described in F. Wunder et al., Anal. Biochem. 339, 104-112 (2005).

SMILES	EC50 [nM]	MEC [nM]
O=C(O)c1cnn(C2CCCN(c3cc(Cl)ccc3-c3ccc(N4CCN(C5COC5)CC4)cc3)C2)c1C(F)F (single isomer, unassigned; enantiomer 2) [Example 43, 1-(1-{4-Chloro-4′-[4-(oxetan-3-yl)piperazin-1-yl][biphenyl]-2-yl}piperidin-3-yl)-5-(difluoromethyl)-1H-pyrazole-4-carboxylic acid hydrochloride (Enantiomer 2)]	42.5	10.0
O=C(O)c1cnn(C2CCCN(c3cc(Cl)ccc3-c3ccc(N4CCN(C(=O)C5CC5)CC4)cc3)C2)c1C(F)F (single isomer, unassigned; enantiomer 2) [Example 50, 1-(1-{4-Chloro-4′-[4-(3-cyclopropylcarbonyl)piperazin-1-yl][biphenyl]-2-yl}piperidin-3-yl)-5-(difluoromethyl)-1H-pyrazole-4-carboxylic acid (Enantiomer 2)]	1.9	0.3
O=C(O)c1cnn(C2CCCN(c3cc(Cl)ccc3-c3ccc(N4CCN(CCOC(F)(F)F)CC4)cc3)C2)c1C(F)F (single isomer, unassigned; enantiomer 2) [Example 26, 1-[1-(4-Chloro-4′-{4-[2-(trifluoromethoxy)ethyl]piperazin-1-yl}[biphenyl]-2-yl)piperidin-3-yl]-5-(difluoromethyl)-1H-pyrazole-4-carboxylic acid hydrochloride (Enantiomer 2)]	6.5	1.0
O=C(O)c1cnn(C2CCCN(c3cc(Cl)ccc3-c3ccc(N4CCN(CC5CC56CC6)CC4)cc3)C2)c1C(F)F (mixture of isomers) [Example 41, 1-[1-[5-Chloro-2-[4-[4-(spiro[2.2]pentan-2-ylmethyl)piperazin-1-yl]phenyl]phenyl]-3-piperidyl]-5-(difluoromethyl)pyrazole-4-carboxylic acid hydrochloride (Diastereomeric mixture 2)]	8.3	1.0
O=C(O)c1cnn(C2CCCN(c3cc(Cl)ccc3-c3cnc(N4CCN(CC5CC5)CC4)nc3)C2)c1C(F)F (single isomer, unassigned; enantiomer 2) [Example 72, 1-[1-(5-Chloro-2-{2-[4-(cyclopropylmethyl)piperazin-1-yl]pyrimidin-5-yl}phenyl)piperidin-3-yl]-5-(difluoromethyl)-1H-pyrazole-4-carboxylic acid hydrochloride (Enantiomer 2)]	18	3.0
CC(F)(F)CN1CCN(c2ccc(-c3ccc(Cl)cc3N3CCCC(n4ncc(C(=O)O)c4C(F)F)C3)cc2)CC1 (single isomer, unassigned; enantiomer 2) [Example 25, 1-(1-{4-Chloro-4′-[4-(2,2-difluoropropyl)piperazin-1-yl][biphenyl]-2-yl}piperidin-3-yl)-5-(difluoromethyl)-1H-pyrazole-4-carboxylic acid hydrochloride (Enantiomer 2)]	2.4	0.3
O=C(O)c1cnn(C2CCCN(c3cc(Cl)ccc3-c3ccc(N4CCN(CC5CC5)CC4)nc3)C2)c1C(F)F (single isomer, unassigned; enantiomer 2) [Example 63, 1-[1-(5-Chloro-2-{6-[4-(cyclopropylmethyl)piperazin-1-yl]pyridin-3-yl}phenyl)piperidin-3-yl]-5-(difluoromethyl)-1H-pyrazole-4-carboxylic acid hydrochloride (Enantiomer 2)]	68	10.0
CC(C)(C)CN1CCN(c2ccc(-c3ccc(Cl)cc3N3CCCC(n4ncc(C(=O)O)c4C(F)F)C3)cc2)CC1 (single isomer, unassigned; enantiomer 2) [Example 13, 1-[(1-{4-Chloro-4′-[4-(2,2-dimethylpropyl)piperazin-1-yl][biphenyl]-2-yl}piperidin-3-yl]-5-(difluoromethyl)-1H-pyrazole-4-carboxylic acid hydrochloride (Enantiomer 2)]	89	3.0
O=C(O)c1cnn(C2CCCN(c3cc(Cl)ccc3-c3ccc(N4CCN(CC5CC5(F)F)CC4)cc3)C2)c1C(F)F (single isomer, unassigned; diastereomer 3) [Example 30, 1-{1-[4-Chloro-4′-(4-{[2,2-difluorocyclopropyl]methyl}piperazin-1-yl)[biphenyl]-2-yl]piperidin-3-yl}-5-(difluoromethyl)-1H-pyrazole-4-carboxylic acid hydrochloride (Diastereomer 3)]	2	0.3
O=C(O)c1cnn(C2CCCN(c3cc(Cl)ccc3-c3ccc(C4CN(CCC(F)(F)F)C4)cc3)C2)c1C(F)F (single isomer, unassigned; enantiomer 2) [Example 59, 1-(1-{4-Chloro-4′-[1-(3,3,3-trifluoropropyl)azetidin-3-yl][biphenyl]-2-yl}piperidin-3-yl)-5-(difluoromethyl)-1H-pyrazole-4-carboxylic acid hydrochloride (Enantiomer 2)]	8.7	3.0
N#CCCN1CCN(c2ccc(-c3ccc(Cl)cc3N3CCCC(n4ncc(C(=O)O)c4C(F)F)C3)cc2)CC1 (single isomer, unassigned; enantiomer 2) [Example 46, 1-(1-{4-Chloro-4′-[4-(2-cyanoethyl)piperazin-1-yl][biphenyl]-2-yl}piperidin-3-yl)-5-(difluoromethyl)-1H-pyrazole-4-carboxylic acid (Enantiomer 2)]	1.7	0.3
O=C(O)c1cnn(C2CCCN(c3cc(Cl)ccc3-c3ccc(N4CCN(CC5(F)CCC5)CC4)cc3)C2)c1C(F)F (single isomer, unassigned; enantiomer 2) [Example 16, 1-[1-(4-Chloro-4′-{4-[(1-fluorocyclobutyl)methyl]piperazin-1-yl}[biphenyl]-2-yl)piperidin-3-yl]-5-(difluoromethyl)-1H-pyrazole-4-carboxylic acid hydrochloride (Enantiomer 2)]	2.6	0.3
O=C(O)c1cnn(C2CCCN(c3cc(Cl)ccc3-c3ccc(N4CCN(CC(F)(F)F)CC4)nc3)C2)c1C(F)F (single isomer, unassigned; enantiomer 1) [Example 64, 1-[1-(5-Chloro-2-{6-[4-(2,2,2-trifluoroethyl)piperazin-1-yl]pyridin-3-yl}phenyl)piperidin-3-yl]-5-(difluoromethyl)-1H-pyrazole-4-carboxylic (Enantiomer 1)]	1.9	1.0
O=C(O)c1cnn(C2CCCN(c3cc(Cl)ccc3-c3ccc(N4CCN(CC5CC5F)CC4)cc3)C2)c1C(F)F (single isomer, unassigned; diastereomer 3) [Example 33, 1-[1-[5-Chloro-2-[4-[4-[(trans-2-fluorocyclopropyl)methyl]piperazin-1-yl]phenyl]phenyl]-3-piperidyl]-5-(difluoromethyl)pyrazole-4-carboxylic acid hydrochloride (Diastereomer 3)]	4.1	0.3
CN1CCN(c2ccc(-c3ccc(Cl)cc3N3CCCC(n4ncc(C(=O)O)c4C(F)F)C3)cc2)CC1 (single isomer, unassigned; enantiomer 1) [Example 1, 1-{1-[4-Chloro-4′-(4-methylpiperazin-1-yl)[biphenyl]-2-yl]piperidin-3-yl}-5-(difluoromethyl)-1H-pyrazole-4-carboxylic acid hydrochloride (Enantiomer 1)]	96.5	10.0
CCC(=O)N1CCC(c2ccc(-c3ccc(Cl)cc3N3CCCC(n4ncc(C(=O)O)c4C(F)F)C3)cc2)CC1 (single isomer, unassigned; enantiomer 2) [Example 56, 1-{1-[4-Chloro-4′-(1-propanoylpiperidin-4-yl)[biphenyl]-2-yl]piperidin-3-yl}-5-(difluoromethyl)-1H-pyrazole-4-carboxylic acid hydrochloride (Enantiomer 2)]	1.5	1.0

From patent publication US20240101528A1, “SUBSTITUTED PYRAZOLO PIPERIDINE CARBOXYLIC ACIDS” (BAYER AKTIENGESELLSCHAFT, priority 2020, published 2024)
